Measurements published in patent US12274681B2, “Compositions and methods for reducing skin fat” (Purdue Research Foundation, priority 2016, dated 2025).

What was measured:
[1] = system: murine 3T3-L1 preadipocytes; assay: Lipid accumulation in differentiating adipocytes, Oil Red O staining and spectrometric quantification; type: cell-based
Experimental: Avasimibe solution was prepared by dissolving in dimethyl sulfoxide (DMSO). At day 6, preadipocytes and avasimibe-treated differentiated adipocytes were subjected to Oil Red 0 staining to visualize accumulated intracellular lipids. Oil Red 0 stained lipids were then extracted for spectrometric quantification of lipids. Intracellular lipids were decreased in a dose-dependent manner by up to 60% (FIG. 3A and FIG. 3B).

ACAT2 [2] = target: ACAT2 (Homo sapiens, UniProt O75908); conditions: cited from earlier work
ACAT2 (Homo sapiens, UniProt O75908), sequence (O75908 whole entry): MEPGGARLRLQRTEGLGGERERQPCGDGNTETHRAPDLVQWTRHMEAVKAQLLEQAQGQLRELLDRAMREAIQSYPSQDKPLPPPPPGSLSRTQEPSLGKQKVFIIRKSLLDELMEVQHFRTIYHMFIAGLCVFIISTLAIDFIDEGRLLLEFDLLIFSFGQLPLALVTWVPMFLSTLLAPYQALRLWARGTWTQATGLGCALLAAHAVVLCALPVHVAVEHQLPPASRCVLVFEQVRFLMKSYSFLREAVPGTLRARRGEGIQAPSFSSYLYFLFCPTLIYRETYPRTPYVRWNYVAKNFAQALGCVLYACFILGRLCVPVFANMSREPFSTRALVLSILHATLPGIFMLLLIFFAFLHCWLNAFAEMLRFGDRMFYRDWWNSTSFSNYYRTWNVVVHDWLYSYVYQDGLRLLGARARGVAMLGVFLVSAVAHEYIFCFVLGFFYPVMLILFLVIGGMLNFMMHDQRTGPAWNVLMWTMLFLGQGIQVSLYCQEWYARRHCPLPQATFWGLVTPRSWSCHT

[3] = system: high fat diet-fed C57BL/6J obese and diabetic mice; assay: High fat diet-induced obese and diabetic mouse model; type: in vivo; conditions: for anti-diabetes treatment / anti-obesity treatment in a mouse model of obesity: summary statement
SREBP1 = assay: Western blot of SREBP1 in adipocytes; type: cell-based
Experimental: Because SREBP1 plays a key role in de novo fatty acids and TG synthesis and the data in FIG. 6 show a potential inhibitory role of avasimibe in suppression of SREBP1-downstream genes involved in fatty acid and TG synthesis, the ability of avasimibe treatment to alter SREBP1 protein expression and de novo fatty acid synthesis in adipocytes was tested.

ACAT1 [4] = target: T1, ACAT1 (Homo sapiens, UniProt P35610); conditions: cited from earlier work
T1 sequence (P35610 1-550): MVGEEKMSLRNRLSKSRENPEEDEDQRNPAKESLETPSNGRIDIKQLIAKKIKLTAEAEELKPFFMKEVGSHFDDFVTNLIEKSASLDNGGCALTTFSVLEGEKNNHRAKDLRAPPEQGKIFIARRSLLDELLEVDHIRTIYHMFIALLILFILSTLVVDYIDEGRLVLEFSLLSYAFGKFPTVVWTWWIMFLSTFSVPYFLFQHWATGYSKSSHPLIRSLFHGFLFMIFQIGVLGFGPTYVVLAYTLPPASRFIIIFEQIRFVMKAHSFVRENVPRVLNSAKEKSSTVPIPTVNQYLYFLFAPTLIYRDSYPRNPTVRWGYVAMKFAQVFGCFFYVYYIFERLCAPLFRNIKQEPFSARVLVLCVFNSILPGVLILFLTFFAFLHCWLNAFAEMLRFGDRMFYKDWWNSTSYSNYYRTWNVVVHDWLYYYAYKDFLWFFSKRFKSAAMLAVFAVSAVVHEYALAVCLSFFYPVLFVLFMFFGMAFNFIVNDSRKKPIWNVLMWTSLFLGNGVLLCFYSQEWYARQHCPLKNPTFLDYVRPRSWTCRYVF

3T3-L1 adipocytes = assay: Proteomic analysis of adipocytes by LC MS/MS; type: cell-based, Mus musculus; conditions: 10 μM
Experimental: 3T3-L1 preadipocytes were induced to differentiate into mature adipocytes with the same culture condition as described elsewhere. […] Avasimibe or DMSO was replaced freshly every 48 h. Each condition was cultured in triplicate. On day 6, adipocytes were washed with 1×PBS and scraped off the culture dishes. Adipocyte cell pellets were collected after centrifugation and subsequently digested with trypsin (Sigma-Aldrich, St. Louis MO, USA) at the Ratio of 1:50 (μg/μg) Trypsin to Protein. The tryptic peptides after trypsin digestion were separated on a nano LC system (1100 Series LC, Agilent Technologies, Santa Clara, CA) as described previously (D'Aquila, et al. 2015). Briefly, peptides were concentrated with Agilent 300SB-C18 enrichment column and separated with C18 reversed phase ZORBAX 300SB-C18 column. High resolution hybrid ion trap mass spectrometer LTQ-Orbitrap LX (Thermo Fisher Scientific, Waltham MA, USA) was employed to identify the peptides in the data-dependent positive acquisition mode. These experiments were done in Bindley Bioscience Center. We used the MaxQuant computational proteomics platform version 1.5.3.17 (Cox and Mann, 2008) to analyze the results from LC MS/MS analysis. The Mus musculus (24754 entries) sequence from UNIPROT retrieved on Sep. 1, 2015 and a common contaminants database were used as our reference databases. MaxQuant was set with parameters as follows: minimum peptides length was set to seven amino acids, and “Match between runs” interval was set to one minute; The FASTA databases were randomized and 1% of protein false discovery rate was allowed; With trypsin digestion, two missed cleavages were accepted; Three modifications per peptide were allowed, including one fixed modification as “Iodoethanol” and variable modifications as “Oxidation (M)” and “Acetyl (Protein N-term)”; Initial precursor was set to 0.07 and fragment mass tolerance set to 0.02 Da; Data were analyzed with “Label-free quantification” (LFQ) checked. The MaxQuant results were used in in-house script to remove all the common contaminant proteins and to calculate the average LFQ intensity values for the biological replicates and log transform [log2(x)]. The missing values were left blank unless indicated. A two tailed student t-test was performed on the LFQ intensity.

[5] = mouse, in vivo, ip, 20 mg/kg
From the text: Tissue- and isoform-specific regulation of ACATs has been proposed to be therapeutic strategy for cholesterol dysregulated diseases, such as atherosclerosis. However, the therapeutic role of ACATs in obesity has never been explored.

[6] = system: differentiated 3T3-L1 preadipocytes; assay: Real-time PCR of lipid synthesis and cholesterol uptake genes in adipocytes; type: cell-based, murine
Experimental: To characterize the effect of avasimibe treatment on mRNA levels of genes involved in lipid metabolism and adipocyte function, differentiated 3T3-L1 preadipocytes in the presence or absence of avasimibe (20 μM) for 6 days were subjected to real-time PCR assay for the analysis of expression of genes involved in synthesis of fatty acids and TGs such as PPARγ, sterol regulatory element binding protein 1c (SREBP1c), MGAT1, DGAT2, FAS and SCD-1.
(§1) Previous studies reported an adipogenesis-dependent increase in cholesterol accumulation in adipocytes. Similarly, adipogenesis was associated with elevated level free cholesterol with little change in CE level.

ACAT = assay: 25-NBD cholesterol-based ACAT assay in adipocytes; type: cell-based
From the text: as §1

[7] = cited from earlier work
adipocytes [8] = assay: De novo fatty acid synthesis, glucose-d7 with stimulated Raman scattering (SRS) microscopy; type: cell-based; conditions: SRS imaging
From the text: Using deuterium labeled glucose-d7, the effect of avasimibe on de novo fatty acid synthesis in adipocytes treated with or without avasimibe was examined. Glucose-d7 incorporated fatty acids were visualized by stimulated Raman scattering (SRS) microscopy.

mature adipocytes = assay: Lipid accumulation by Coherent Anti-Stokes Raman Scattering (CARS) microscopy; type: cell-based, murine
[9] = system: high-fat diet-induced obesity mouse model; assay: Pair-feeding study in high-fat diet-induced obesity mouse model; type: in vivo, mice
From the text: To do this, mice were pair-fed with the amount of food consumed by avasimibe-administrated mice for 8 days.

cytochrome P450 (CYP450) = conditions: Sahi, et al. 2004; cited from earlier work
adipocytes [10] = assay: Cholesterol and cholesterol ester accumulation in adipocytes during adipogenesis; type: cell-based
From the text: as §1

ACAT1 [11] = assay: Lentivirus-mediated ACAT1 knockdown in adipocytes (Oil Red O, real-time PCR); type: cell-based, mouse
Experimental: The direct role of ACAT1 on synthesis of fatty acids and TGs in adipocytes by lentivirus-mediated ACAT1 knockdown using its specific shRNA was tested.

ACAT2 [12] = assay: ACAT2 knockdown in adipocytes (Oil Red O, real-time PCR); type: cell-based, mouse
[13] = daily i.p. 20 mg/kg, about 2-week

In the case of `CCCCCCCCCCC(C)(C)C(=O)Nc1c(OC)cc(OC)cc1OC` [CI-976, 2,2-Dimethyl-N-(2,4,6-trimethoxyphenyl) dodecanamide], the “lipid accumulation (Oil Red O)” value ([1]; 0, 5, 15 and 20 μM for 6 days) is given as “decrease in lipid accumulation”, the IC50 (ACAT2 [2]) is given as less than 1000 nM and the anti-diabetes treatment [3] is given as “highly effective”. The “anti-obesity treatment in a mouse model of obesity” value [3] was “highly effective”.
For `CC(C)c1cc(C(C)C)c(CC(=O)NS(=O)(=O)Oc2c(C(C)C)cccc2C(C)C)c(C(C)C)c1` [avasimibe], the “level of 125 kDa inactive precursor form of SREBP1” value (SREBP1) is given as “elevated levels”, the IC50 (ACAT1 [4]) is given as 10000 nM and the “Acyl-CoA dehydrogenase protein level reduction” value (3T3-L1 adipocytes) is given as 56%. The “Acyl-CoA synthetase long-chain family member 1 protein level reduction” value (3T3-L1 adipocytes) was 86%, the FAS protein level (3T3-L1 adipocytes) was “only identified in the control group” and the “acetyl-CoA acyltransferase 1 protein level reduction” value (3T3-L1 adipocytes) was 61%. The “adiponectin protein level reduction” value (3T3-L1 adipocytes) was 84%, the “carnitine O-acetyltransferase protein level” value (3T3-L1 adipocytes) was “only identified in the control group” and the “cytochrome B5 Reductase 3 and superoxide dismutase 1 protein levels” value (3T3-L1 adipocytes) was “not altered significantly”. For the same compound, the “cytochrome B5 Type A protein level reduction” value (3T3-L1 adipocytes) was 67%, the “enoyl CoA hydratase short chain 1 protein level reduction” value (3T3-L1 adipocytes) was 64% and the “fatty acid binding protein 4 protein level reduction” value (3T3-L1 adipocytes) was 64%. For the same compound, the “hydroxyacyl-CoA dehydrogenase protein level reduction” value (3T3-L1 adipocytes) was 64%, the “hydroxysteroid (17-13) dehydrogenase 4 protein level reduction” value (3T3-L1 adipocytes) was 38% and the “sterol carrier protein 2 downregulation” value (3T3-L1 adipocytes) was 36%. For the same compound, the “liver toxicity by alanine transaminase (ALT) assay” value [5] was “no noticeable liver toxicity”, the “mRNA levels of genes involved in lipid synthesis (PPARγ, SREBP1c, MGAT1, DGAT2, FAS, SCD-1)” value ([6]; 20 μM for 6 days) was “marked decrease” and the “mRNA levels of cholesterol uptake genes SR-BI and CD-36” value ([6]; vs control adipocytes) was “marked decrease”. For the same compound, the “decrease of intracellular lipids (Oil Red O)” value ([1]; avasimibe 0, 1, 5, and 20 μM for 6 days, dose-dependent) was “up to 60%”, the “ACAT activity (fluorescence-labeled CE accumulation)” value (ACAT) was “inhibited the ACAT activity” and the IC50 (ACAT2 [2]) was 2500 nM. For the same compound, the “safety when administered to rats, dogs, and humans” value ([7]; in vivo) was “generally considered safe”, the hypercholesterolemia ([7]; oral) was “effectively lowered” and the “effect on body weight, food intake and insulin resistance” value ([7]; orally administrated) was “no effect”. For the same compound, the “LD accumulation and glucose-d7 signal in LDs (de novo fatty acid synthesis)” value (adipocytes [8]) was “reduced level”, the “lipid accumulation by CARS microscopy” value (mature adipocytes) was “inhibited lipid accumulation was confirmed” and the HOMA-IR values ([3]; 2-week administration) was “improved”. For the same compound, the blood glucose ([3]; 2-week administration) was “marked reduction”, the glucose tolerance ([3]; 2-week administration) was “improved glucose tolerance” and the insulin levels ([3]; 2-week administration) was “marked reduction”. For the same compound, the “decrease in food intake” value ([3]; daily i.p. 20 mg/kg) was “approximately 50%”, the energy expenditure ([3]; daily i.p. 20 mg/kg) was “reduced energy expenditure” and the “reduction or suppression in total body weight gain” value ([3]; daily i.p. 20 mg/kg body weight, about 2-week) was “about 25%”. For the same compound, the “white adipose tissue (inguinal, epididymal, retroperitoneal) weight” value [3, 13] was “significant loss”, the “whole body fat mass” value [3, 13] was “significant loss” and the circulating leptin level ([3]; mouse, in vivo) was “markedly suppressed”. The “serum CE” value ([3]; mouse, in vivo) was “decrease”, the “serum TG” value ([3]; mouse, in vivo) was “decrease” and the serum free cholesterol ([3]; mouse, in vivo) was “decrease”. The anti-diabetes treatment [3] was “highly effective”, the “anti-obesity treatment in a mouse model of obesity” value [3] was “highly effective” and the respiratory exchange ratio ([3]; vs control mice) was “reduced respiratory exchange ratio”. The “blood glucose of pair-fed group relative to avasimibe-treated mice” value ([9]; 8 days) was “didn't reach to the level found from avasimibe-treated mice”, the fecal energy content ([9]; 8 days) was “little change” and the “fecal excretion and fecal energy excretion” value ([9]; figure legend FIG. 23C, 23D) was “suppressed”. For the same compound, the “inhibition of cytochrome P450 (CYP450)” value (cytochrome P450 (CYP450)) was “known to inhibit”, the “CE accumulation in adipocytes” value (adipocytes [10]) was “complete inhibition” and the “cholesterol level in adipocytes” value (adipocytes [10]) was “significantly reduced level”.
In the case of “ACAT1 shRNA: mouse ACAT1 shRNA sequence (SEQ ID NO:5), lentivirus-mediated ACAT1 knockdown (CCGGCCAACCAGAGACUAAACAUAUCUCGAGAUAUGUUUAGUCUCUGGUUGGUUUUUUG; listed as Mus musculus)”, the “suppression of lipid accumulation vs control ShRNA adipocytes (Oil Red O)” value (ACAT1 [11]; ACAT1 knockdown) is reported as “up to 40%”, the “mRNA levels of genes involved in lipid synthesis” value (ACAT1 [11]; ACAT1 knockdown, real-time PCR) is reported as “marked decrease” and the ACAT2 expression level (ACAT1 [11]; ACAT1 shRNA) is reported as “no influence”.
With “ACAT2 shRNA: mouse ACAT2 shRNA sequence (SEQ ID NO:6), ACAT2 knockdown (CCGGUGCGGUGGUUCAUGAGUAUAUCUCGAGAUAUACUCAUGAACCACCGCAUUUUUUG; listed as Mus musculus)” the “mRNA levels of genes involved in TG synthesis” value (ACAT2 [12]) was “dramatic reduction” and the “suppression of lipid accumulation vs control ShRNA adipocytes (Oil Red O)” value (ACAT2 [12]) was “up to 55%”.
